Target: T1, HIF-PH2 (EGLN1) (Homo sapiens, UniProt Q9GZT9)
T1 construct: made in house; host or cells: insect Hi5 cells
Assay: HIF-PH assay (14CO2 capture, peptide-dependent turnover)
Format: biochemical
Settings: for inhibition at 22.22 µM: Concentration 22.22 μM
Excerpt: Ketoglutaric acid α-[1-^14C]-sodium salt, alpha-ketoglutaric acid sodium salt, and HPLC purified peptide may be obtained from commercial sources, e.g., Perkin-Elmer (Wellesley Mass.), Sigma-Aldrich, and SynPep Corp. (Dublin Calif.), respectively. Peptides for use in the assay may be fragments of HIFα as described above or as disclosed in International Publication WO 2005/118836, incorporated by reference herein. For example, a HLF peptide for use in the HIF-PH assay is [methoxycoumarin]-DLDLEALAPYIPADDDFQL-amide. HIF-PH, e.g., HIF-PH2 (EGLN1), can be expressed in, e.g., insect Hi5 cells, and partially purified, e.g., through a SP ion exchange chromatography column. Enzyme activity is determined by capturing ^14CO2 using an assay described by Kivirikko and Myllyla (1982, Methods Enzymol. 82:245-304). Assay reactions contain 50 mM HEPES (pH 7.4), 100 μM α-ketoglutaric acid sodium salt, 0.30 μCi/mL ketoglutaric acid α-[1-^14C]-sodium salt, 40 μM FeSO4, 1 mM ascorbate, 1541.8 units/mL Catalase, with or without 50 μM peptide substrate and various concentrations of compound of the invention. Reactions are initiated by addition of HIF-PH enzyme.
The peptide-dependent percent turnover is calculated by subtracting percent turnover in the absence of peptide from percent turnover in the presence of substrate peptide. Percent inhibition and IC50 are calculated using peptide-dependent percent turnover at given inhibitor concentrations. Calculation of IC50 values for each inhibitor is conducted using GraFit software (Erithacus Software Ltd., Surrey UK). […]

T1 sequence (Q9GZT9 whole entry, species assumed): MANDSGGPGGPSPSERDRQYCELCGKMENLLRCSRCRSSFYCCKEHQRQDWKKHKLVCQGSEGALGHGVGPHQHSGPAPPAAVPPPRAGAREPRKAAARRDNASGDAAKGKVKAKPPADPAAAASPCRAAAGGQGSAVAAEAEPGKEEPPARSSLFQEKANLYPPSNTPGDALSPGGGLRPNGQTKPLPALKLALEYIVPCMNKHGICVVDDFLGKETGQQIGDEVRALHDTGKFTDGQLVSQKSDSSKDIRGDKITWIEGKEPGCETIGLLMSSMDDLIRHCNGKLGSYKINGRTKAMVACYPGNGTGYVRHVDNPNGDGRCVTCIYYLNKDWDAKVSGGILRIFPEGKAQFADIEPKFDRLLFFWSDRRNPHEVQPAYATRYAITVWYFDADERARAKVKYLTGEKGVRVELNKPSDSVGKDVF

N#Cc1ccc(-c2noc3cnc(C(=O)NCC(=O)O)c(O)c23)cc1 [Example 68, {[3-(4-Cyano-phenyl)-4-hydroxy-isoxazolo[5,4-c]pyridine-5-carbonyl]-amino}-acetic acid]
inhibition at 22.22 µM: 97.4%

O=C(O)CNC(=O)c1ncc2onc(-c3ccc(Cl)cc3)c2c1O [Example 14, {[3-(4-Chloro-phenyl)-4-hydroxy-isoxazolo[5,4-c]pyridine-5-carbonyl]-amino}-acetic acid]
inhibition at 22.22 µM: 98.8%

COc1ccc(-c2noc3c(O)c(C(=O)NCC(=O)O)nc(-c4ccccc4)c23)cc1 [Example 55, {[7-Hydroxy-3-(4-methoxy-phenyl)-4-phenyl-isoxazolo[4,5-c]pyridine-6-carbonyl]-amino}-acetic acid]
inhibition at 22.22 µM: 98.9%

O=C(O)CNC(=O)c1ncc2onc(-c3cccc(Cl)c3)c2c1O [Example 17, {[3-(3-Chloro-phenyl)-4-hydroxy-isoxazolo[5,4-c]pyridine-5-carbonyl]-amino}-acetic acid]
inhibition at 22.22 µM: 98.6%

Cc1nc(C(=O)NCC(=O)O)c(O)c2c(-c3ccc(F)cc3)noc12 [Example 26, {[3-(4-Fluoro-phenyl)-4-hydroxy-7-methyl-isoxazolo[5,4-c]pyridine-5-carbonyl]-amino}-acetic acid]
inhibition at 22.22 µM: 93.8%

CS(=O)(=O)c1ccc(-c2noc3cnc(C(=O)NCC(=O)O)c(O)c23)cc1 [Example 76, {[4-Hydroxy-3-(4-methanesulfonyl-phenyl)-isoxazolo[5,4-c]pyridine-5-carbonyl]-amino}-acetic acid]
inhibition at 22.22 µM: 99.4%

N#Cc1nc(C(=O)NCC(=O)O)c(O)c2onc(-c3ccc(F)cc3)c12 [Example 52, {[4-Cyano-3-(4-fluoro-phenyl)-7-hydroxy-isoxazolo[4,5-c]pyridine-6-carbonyl]-amino}-acetic acid]
inhibition at 200 µM (Concentration 200.00 μM): 98.6%

O=C(O)CNC(=O)c1nc(NCC(=O)O)c2onc(-c3cccc(Cl)c3)c2c1O [Example 27, {[3-(3-Chloro-phenyl)-7-(ethanic acid-2-yl)amino-4-hydroxy-isoxazolo[5,4-c]pyridine-5-carbonyl]-amino}-acetic acid]
% Inhibition (HIF-PH2) (Concentration 200.00 μM): 96.45%

Cc1noc2cnc(C(=O)NCC(=O)O)c(O)c12 [Example 70, [(4-Hydroxy-3-methyl-isoxazolo[5,4-c]pyridine-5-carbonyl)-amino]-acetic acid]
inhibition at 22.22 µM: 99.3%

O=C(O)CNC(=O)c1ncc2oc(-c3ccccc3)nc2c1O [Example 9, [(7-Hydroxy-2-phenyl-oxazolo[5,4-c]pyridine-6-carbonyl)-amino]-acetic acid]
inhibition at 200 µM (Concentration 200.00 μM): 98.6%

Cc1nc(C(=O)NCC(=O)O)c(O)c2c(-c3ccc(Cl)cc3)noc12 [Example 21, {[3-(4-Chloro-phenyl)-4-hydroxy-7-methyl-isoxazolo[5,4-c]pyridine-5-carbonyl]-amino}-acetic acid]
inhibition at 200 µM (Concentration 200.00 μM): 99.4%

O=C(O)CNC(=O)c1nc(C(F)(F)F)c2onc(-c3ccccc3)c2c1O [Example 38, [(4-Hydroxy-3-phenyl-7-trifluoromethyl-isoxazolo[5,4-c]pyridine-5-carbonyl)-amino]-acetic acid]
inhibition at 22.22 µM: 97.8%

N#Cc1nc(C(=O)NCC(=O)O)c(O)c2c(-c3ccc(Cl)cc3)noc12 [Example 25, {[3-(4-Chloro-phenyl)-7-cyano-4-hydroxy-isoxazolo[5,4-c]pyridine-5-carbonyl]-amino}-acetic acid]
inhibition at 22.22 µM: 98.7%

C[C@@H](NC(=O)c1ncc2c(-c3ccccc3)noc2c1O)C(=O)O [Example 44, (R)-2-[(7-Hydroxy-3-phenyl-isoxazolo[4,5-c]pyridine-6-carbonyl)-amino]-propionic acid]
inhibition at 200 µM (Concentration 200.00 μM): 82.2%

O=C(O)CNC(=O)c1nc(Br)c2onc(-c3ccccc3)c2c1O [Example 41, [(7-Bromo-4-hydroxy-3-phenyl-isoxazolo[5,4-c]pyridine-5-carbonyl)-amino]-acetic acid]
inhibition at 22.22 µM: 99.4%

O=C(O)CNC(=O)c1nc(C#Cc2ccccc2)c2nc(-c3ccccc3)oc2c1O [Example 6, [(7-Hydroxy-2-phenyl-4-phenylethynyl-oxazolo[4,5-c]pyridine-6-carbonyl)-amino]-acetic acid]
inhibition at 200 µM (Concentration 200.00 μM): 99%

O=C(O)CNC(=O)c1ncc2c(-c3ccc(F)cc3)noc2c1O [Example 45, {[3-(4-Fluoro-phenyl)-7-hydroxy-isoxazolo[4,5-c]pyridine-6-carbonyl]-amino}-acetic acid]
inhibition at 200 µM (Concentration 200.00 μM): 98.6%

O=C(O)CNC(=O)c1nc(Cc2ccccc2)c2c(-c3ccccc3)noc2c1O [Example 62, [(4-Benzyl-7-hydroxy-3-phenyl-isoxazolo[4,5-c]pyridine-6-carbonyl)-amino]-acetic acid]
inhibition at 200 µM (Concentration 200.00 μM): 100%

N#Cc1nc(C(=O)NCC(=O)O)c(O)c2onc(-c3ccc(Br)o3)c12 [Example 54, {[3-(5-Bromo-furan-2-yl)-4-cyano-7-hydroxy-isoxazolo[4,5-c]pyridine-6-carbonyl]-amino}-acetic acid]
inhibition at 200 µM (Concentration 200.00 μM): 99.9%

O=C(O)CNC(=O)c1nc(-c2ccccc2)c2nc(-c3ccccc3)oc2c1O [Example 5, [(7-Hydroxy-2,4-diphenyl-oxazolo[4,5-c]pyridine-6-carbonyl)-amino]-acetic acid]
inhibition at 200 µM (Concentration 200.00 μM): 98.7%

O=C(O)CNC(=O)c1ncc2onc(-c3ccc(Cl)cc3Cl)c2c1O [Example 75, {[3-(2,4-Dichloro-phenyl)-4-hydroxy-isoxazolo[5,4-c]pyridine-5-carbonyl]-amino}-acetic acid]
inhibition at 22.22 µM: 98%

O=C(O)CNC(=O)c1nc(Br)c2onc(-c3ccc(Cl)cc3)c2c1O [Example 24, {[7-Bromo-3-(4-chloro-phenyl)-4-hydroxy-isoxazolo[5,4-c]pyridine-5-carbonyl]-amino}-acetic acid]
inhibition at 22.22 µM: 100%

N#Cc1nc(C(=O)NCC(=O)O)c(O)c2c(-c3ccc(F)cc3)noc12 [Example 23, {[7-Cyano-3-(4-fluoro-phenyl)-4-hydroxy-isoxazolo[5,4-c]pyridine-5-carbonyl]-amino}-acetic acid]
inhibition at 22.22 µM: 98.2%

C[C@H](NC(=O)c1ncc2onc(-c3ccccc3)c2c1O)C(=O)O [Example 30, 2-[(4-Hydroxy-3-phenyl-isoxazolo[5,4-c]pyridine-5-carbonyl)-amino]-(S)-propionic acid]
inhibition at 200 µM (Concentration 200.00 μM): 100%

CCc1nc(C(=O)NCC(=O)O)c(O)c2oc(-c3ccccc3)nc12 [Example 4, [(4-Ethyl-7-hydroxy-2-phenyl-oxazolo[4,5-c]pyridine-6-carbonyl)-amino]-acetic acid]
inhibition at 200 µM (Concentration 200.00 μM): 99.2%

O=C(O)CNC(=O)c1ncc2onc(-c3ccc(Oc4ccccc4)cc3)c2c1O [Example 69, {[4-Hydroxy-3-(4-phenoxy-phenyl)-isoxazolo[5,4-c]pyridine-5-carbonyl]-amino}-acetic acid]
inhibition at 22.22 µM: 99.8%

COc1ccc(-c2noc3c(O)c(C(=O)NCC(=O)O)ncc23)cc1 [Example 46, {[7-Hydroxy-3-(4-methoxy-phenyl)-isoxazolo[4,5-c]pyridine-6-carbonyl]-amino}-acetic acid]
inhibition at 200 µM (Concentration 200.00 μM): 99.4%

O=C(O)CNC(=O)c1ncc2onc(-c3ccc(OC(F)(F)F)cc3)c2c1O [Example 39, {[4-Hydroxy-3-(4-trifluoromethoxy-phenyl)-isoxazolo[5,4-c]pyridine-5-carbonyl]-amino}-acetic acid]
inhibition at 22.22 µM: 98.7%

O=C(O)CNC(=O)c1ncc2onc(-c3ccccc3)c2c1O [Example 11, [(4-Hydroxy-3-phenyl-isoxazolo[5,4-c]pyridine-5-carbonyl)-amino]-acetic acid]
inhibition at 200 µM (Concentration 200.00 μM): 99.9%

O=C(O)CNC(=O)c1ncc2onc(-c3ccccc3OC(F)(F)F)c2c1O [Example 35, {[4-Hydroxy-3-(2-trifluoromethoxy-phenyl)-isoxazolo[5,4-c]pyridine-5-carbonyl]-amino}-acetic acid]
inhibition at 22.22 µM: 86.3%

O=C(O)CNC(=O)c1nc(C#Cc2ccccc2)c2c(-c3ccccc3)noc2c1O [Example 57, [(7-Hydroxy-3-phenyl-4-phenylethynyl-isoxazolo[4,5-c]pyridine-6-carbonyl)-amino]-acetic acid]
inhibition at 22.22 µM: 98.6%

COc1ccc(-c2noc3c(C)nc(C(=O)NCC(=O)O)c(O)c23)cc1 [Example 74, {[4-Hydroxy-3-(4-methoxy-phenyl)-7-methyl-isoxazolo[5,4-c]pyridine-5-carbonyl]-amino}-acetic acid]
inhibition at 22.22 µM: 94.4%

O=C(O)CNC(=O)c1ncc2nc(-c3ccccc3)oc2c1O [Example 1, [(7-Hydroxy-2-phenyl-oxazolo[4,5-c]pyridine-6-carbonyl)-amino]-acetic acid]
inhibition at 200 µM (Concentration 200.00 μM): 99.8%

Cc1noc2c(-c3ccccc3)nc(C(=O)NCC(=O)O)c(O)c12 [Example 71, [(4-Hydroxy-3-methyl-7-phenyl-isoxazolo[5,4-c]pyridine-5-carbonyl)-amino]-acetic acid]
inhibition at 22.22 µM: 97.5%

Cc1nc(C(=O)NCC(=O)O)c(O)c2onc(-c3ccccc3)c12 [Example 50, [(7-Hydroxy-4-methyl-3-phenyl-isoxazolo[4,5-c]pyridine-6-carbonyl)-amino]-acetic acid]
inhibition at 200 µM (Concentration 200.00 μM): 99.5%

Reference: patent publication US8269008B2, “Oxazolopyridine and isoxazolopyridine derivatives for use in the treatment of HIF-mediated conditions” (FibroGen, Inc., priority 2007, dated 2012)
